Literature values, collected in US20090325888A1, “Peptides having a health benefit and compositions comprising them” (priority 2005, published 2009).

Columns and labels:
ACE = ACE (Homo sapiens, UniProt P12821)
hypertensive humans = conditions: in sour milk, Hata 1996

Sequence of ACE (P12821 30-1306, species assumed): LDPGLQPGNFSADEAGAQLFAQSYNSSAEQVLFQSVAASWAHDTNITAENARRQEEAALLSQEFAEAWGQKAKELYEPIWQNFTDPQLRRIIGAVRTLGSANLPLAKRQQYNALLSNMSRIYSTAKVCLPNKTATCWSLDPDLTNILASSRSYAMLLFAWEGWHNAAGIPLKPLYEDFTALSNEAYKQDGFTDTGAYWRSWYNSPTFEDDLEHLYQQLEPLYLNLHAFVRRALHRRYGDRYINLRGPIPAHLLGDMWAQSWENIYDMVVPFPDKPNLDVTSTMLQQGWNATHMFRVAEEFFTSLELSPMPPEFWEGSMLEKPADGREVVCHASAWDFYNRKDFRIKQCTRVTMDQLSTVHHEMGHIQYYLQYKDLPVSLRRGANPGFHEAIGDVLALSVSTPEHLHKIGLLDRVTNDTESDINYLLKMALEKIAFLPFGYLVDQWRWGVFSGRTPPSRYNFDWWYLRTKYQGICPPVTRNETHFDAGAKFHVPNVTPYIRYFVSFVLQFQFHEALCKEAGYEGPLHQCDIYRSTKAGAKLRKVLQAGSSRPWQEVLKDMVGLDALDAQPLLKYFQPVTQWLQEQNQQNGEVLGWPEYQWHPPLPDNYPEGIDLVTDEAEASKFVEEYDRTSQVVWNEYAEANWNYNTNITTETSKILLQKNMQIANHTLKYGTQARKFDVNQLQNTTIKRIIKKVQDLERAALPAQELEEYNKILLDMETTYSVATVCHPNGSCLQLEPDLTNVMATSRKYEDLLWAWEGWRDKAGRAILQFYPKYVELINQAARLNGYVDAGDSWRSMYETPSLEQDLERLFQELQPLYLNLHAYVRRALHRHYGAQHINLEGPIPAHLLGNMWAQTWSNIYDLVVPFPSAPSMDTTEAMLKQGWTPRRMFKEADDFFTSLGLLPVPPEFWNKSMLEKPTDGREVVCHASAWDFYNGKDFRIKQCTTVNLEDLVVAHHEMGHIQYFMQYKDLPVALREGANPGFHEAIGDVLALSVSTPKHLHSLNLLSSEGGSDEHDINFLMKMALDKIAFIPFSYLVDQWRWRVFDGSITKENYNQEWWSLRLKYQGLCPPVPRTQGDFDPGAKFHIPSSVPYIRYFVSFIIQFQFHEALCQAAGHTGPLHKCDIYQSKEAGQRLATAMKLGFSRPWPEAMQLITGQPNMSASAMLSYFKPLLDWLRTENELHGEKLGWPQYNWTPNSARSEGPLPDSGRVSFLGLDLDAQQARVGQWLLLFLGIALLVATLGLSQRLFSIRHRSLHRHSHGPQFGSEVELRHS

Row | Compound | IC50 (ACE; Nakamura 1995, Aryoshi 1993, read-out: IC50 values reported earlier as ACEI peptides) | in vitro ACE inhibition (ACE; peptides in fermented milk products) | blood pressure lowering effect (hypertensive humans)
1 | LPP: known ACE inhibiting tripeptide, β-casein f151-153 (UniProt P02666 166-168, looked up, fragment) | 9.6 µM | – | –
2 | CC[C@H](C)[C@H](N)C(=O)N1CCC[C@H]1C(=O)N1CCC[C@H]1C(=O)O [IPP] | – | in vitro ACE inhibition | blood pressure lowering effect
